Measurements reported in a melting point compilation (Tetko et al.; mined from patent text by program, amines drawn as free bases though some values may be those of a salt).

melting point | Compound
206 to 207 °C | CSc1ccc(-n2c(-c3ccc(Cl)cc3)nc(SC)c(C#N)c2=O)cc1
68 °C | Fc1ccc(C(=Cc2ccccc2Cl)CBr)cc1
130 to 132 °C | CC1(C)CCCC2(C)C1CCC(C)(O)C2CCO (centres undefined)
166 to 169 °C | CSC1C(=O)Nc2ccc(Oc3ccc(Cl)cc3)cc21 (centres undefined)
89 °C | N#Cc1cc(N)ccc1Oc1ccccc1
232 to 233 °C | Cn1c(=O)[nH]c(=O)n(-c2ccc(Sc3nc4ccc(Cl)cc4s3)cc2)c1=O
72.5 to 73.5 °C | CCCCS(=O)(=O)c1ccccc1C(=O)O
109 to 113 °C | COc1cc(C=NOCc2ccccc2)c([N+](=O)[O-])cc1OC
180 to 181 °C | CC(=O)OCC1OC(n2cc(C)c(NO)nc2=O)CC1F (centres undefined)
340 to 344 °C | N#Cc1ccc2c(c1)NC(=O)C2c1ncnc2nn(C3CCCC3)cc12 (centres undefined)
180 °C | CCCCN1C(=O)NC(=Cc2ccc(C=O)cc2)C1=O
148 to 150 °C | CN1CC(CO)C(c2ccccc2)(c2ccccc2)C1=O (centres undefined)
32 to 33 °C | CN1CCN(C)CCN2CCOCCOCCN(CC1)CCN(C)CCN(C)CC2
142 to 144 °C | Nc1nc2ccccc2n1-c1cccc(-c2cccs2)c1
151 to 154 °C | COc1ccc(O[C@@H]2COc3ccc(-c4ccc5cc(F)ccc5n4)cc3[C@@H]2O)cc1 (relative stereo)
193 to 195 °C | O=C1CCC(N2C(=O)c3cccc(CNC(=O)Nc4cccc(Cl)c4)c3C2=O)C(=O)N1 (centres undefined)
267 to 270 °C | CCCc1c2nc(C(=O)OC)cc(N)c2cc2c(=O)cc(C(=O)OCC)oc12
134 to 136 °C | C=CCOc1cccc2c(=O)cc(N3CCOCC3)oc12
162 to 164 °C | O=CC1Cc2cc(C(=O)c3cccs3)c(Cl)c(Cl)c2O1 (centres undefined)
73 °C | CCCCCCc1ncc(C(=O)O)s1
174 to 178 °C | CNC(=O)C(Cc1ccc(OC)cc1)NC(=O)C(C)(CC(C)C)c1ccc(Cl)cc1S (centres undefined)
275 to 277 °C | Cc1ccc([N+](=O)[O-])cc1Nc1nccc(-c2cccnn2)n1
128 to 131 °C | COc1ccc2c(c1)CCC1C2CCC2(C)C(=O)CCC12 (centres undefined)
128 to 129 °C | COc1cc2c(cc1OC)C(=O)CCCS2

melting point | Compound
149 °C | CS(=O)(=O)Nc1cccc(CC2c3ccccc3CCc3ccccc32)c1
115 °C | C(=Nn1ccnc1)c1ccccc1
77 to 84 °C | COc1ccc(C(=O)Nc2ccc(N3CCC(NC[C@H](O)COc4ccc(O)cc4)CC3)cc2)cc1OC
178 to 182 °C | O=C(CN1CCOCC1)Nc1nc2c(Oc3cc(-c4ccc(C(F)(F)F)cc4)ncn3)cccc2s1
109 to 113 °C | C/C(Cl)=C/CCC(=O)C=P(c1ccccc1)(c1ccccc1)c1ccccc1
139 to 141 °C | Clc1ccc(-c2nc3ccccc3n2-c2ccccc2)cc1
248 to 251 °C | COC(=O)Cn1c2c(c3ccccc3c1=O)C(=O)c1ccccc1-2
149 to 152 °C | NC(=O)c1cnn2c1NCC=C2c1ccccc1
70 to 72 °C | OC(COc1ccc(-c2ccccc2Br)cc1)CN1CCCC1 (centres undefined)
134 to 137 °C | C1=CC2=C(CCCC2)n2c3c(c4cnccc42)CCC=C13
97 to 98 °C | COC(=O)C(=O)c1ccc(OCCOc2ccc(Oc3ccccc3)cc2)cc1
167 to 168 °C | CC(=O)NCC1CC(c2ccc(F)cc2)=NO1 (centres undefined)
67 to 69 °C | CSc1nc(C)cc2nccn12
177 to 178 °C | CCCC1CCC(=O)C=C1c1ccc(OCC(=O)O)c(Cl)c1Cl (centres undefined)
165 °C | CCCCOc1ccc(NC(=O)N(C)c2cccc(-c3ccc(CCC(=O)O)cc3)c2)cc1
123 to 124 °C | Cc1ccnc2c1C(=O)CC(c1cccc(Cl)c1Cl)C2 (centres undefined)
230 to 235 °C | CC(=O)NS(=O)(=O)c1ccc(-c2c(Cl)nc(C(F)(F)F)nc2-c2ccc(S(C)(=O)=O)cc2)cc1
215 to 217 °C | CNC(=O)c1cccc(Nc2nc(Nc3ccc4c(c3)CCCC(=O)N4C)ncc2Cl)c1
146 to 147 °C | COC(=O)c1cc(-c2nc(COc3ccc(CCl)cc3OC)c(C)o2)ccc1OS(C)(=O)=O
101 to 104 °C | CCCc1c(OCCCOCCCOc2ccc3ccc(OCC(=O)O)cc3c2C(C)=O)ccc(C(C)=O)c1O
172 to 175 °C | CCCN1C(=O)c2ccccc2C1(O)c1ccc(F)cc1 (centres undefined)
183 to 186 °C | Cc1cc(-c2nc[nH]n2)ccc1N
169 to 171 °C | CCC1c2ccccc2-c2sccc2N1S(=O)(=O)c1ccc(O)cc1 (centres undefined)
82 to 84 °C | Cc1ccc(C)n1C(C)c1ncccc1F (centres undefined)

melting point | Compound
224 to 225 °C | O=C1NC(=O)C(=Cc2ccc(S(=O)(=O)CCCc3ccccc3)cc2)S1
73 to 80 °C | CCN(Cc1cc(Br)ccc1OCC1CC1)c1ccc(C(=O)O)nn1
210 to 212 °C | Cc1ccnc(NC(N)=S)c1
124 to 130 °C | O=C(C[C@H](NC(=O)c1ccccc1)C(=O)O)c1ccc2oc3ccccc3c2c1
110 to 113 °C | Cc1c(SCCCCSCc2ccncc2)ccnc1CNc1cnc2ccccc2c1
147 to 148 °C | CCN1C(=O)c2cnc(-c3ccccc3)nc2N(C(=O)CCl)c2ccccc21
57 to 58 °C | COc1ccc(C#Cc2ccccc2)cc1
132 to 134 °C | COCOc1c(NC(=O)NN)cc(OC)cc1C(C)(C)C
175 to 178 °C | Cc1nc2ccccc2nc1Oc1ccc(O)cc1
227 to 229 °C | CC(C)CCn1c(=O)[nH]c2cc(Cl)cc(Cl)c2c1=O
129 to 131 °C | COc1cccc(N2CCCN(/C(C)=C(/C#N)C(N)=S)CC2)c1
120 to 123 °C | CCC(C)(C)c1ccc(OCCCNC(=O)c2cc(N)c3ccccc3c2O)c(C(C)(C)CC)c1
158 to 159 °C | CCc1cccc2c3c([nH]c12)C(CC)(CC(O)O)OCC3 (centres undefined)
161 to 163 °C | C[C@H](N)C(=O)N(C(=O)OCc1ccccc1)c1ccccc1
135 to 137 °C | COC(=O)C1=C(C)NC(C)=C(C(=O)OC)C1c1cc([N+](=O)[O-])ccc1OCCNCC(O)c1ccccc1 (centres undefined)
116 to 118 °C | Cn1cnc([N+](=O)[O-])c1Oc1ccccc1
97 to 99 °C | COc1ccc2c(C)c(F)ccc2c1C(F)(F)F
166 °C | COCCNc1ccnc2c(NC(=O)c3c(Cl)cccc3Cl)cccc12
161 to 162 °C | COc1ccc(-c2coc3cc(OCC4CO4)ccc3c2=O)cc1OC (centres undefined)
208 to 210 °C | COC(=O)COc1ccc(C(=O)NNC(=O)c2ccc(C(=N)SC)cc2)cc1
176 to 179 °C | CCOC(=O)c1cn(CC)c2cc(C(=O)C=CN(C)C)c(F)cc2c1=O
63 to 66 °C | O=C(NC1CCN(C(=O)c2ccccc2)CC1)c1ccccc1Oc1ccc(Cl)cc1Cl
123 to 125 °C | COc1cc(Nc2c(C#N)cnc3cc(SCc4ccccc4)c(OC)cc23)c(Cl)cc1Cl

Compound | melting point
CC(C)(C)NC(=O)c1nn(-c2ccc(Cl)cc2)c2c1C1CCC2CC1 | 198 to 200 °C
Cc1nc2ccc3c(c2o1)OC(CN1CCC(n2c(=O)[nH]c4ccccc42)CC1)CO3 (centres undefined) | 218 to 220 °C
Clc1ccc2c(c1)C(c1ccccc1)=NCc1nnc(CCOCc3ccccc3)n1-2 | 115 to 117 °C
